Assay results reported in paper PMC5893597, “Structural mechanism for nucleotide-driven remodeling of the AAA-ATPase unfoldase in the activated human 26S proteasome” (Nature Communications, 2018).

System: T1, human 26S proteasome AAA-ATPase heterohexamer (Rpt1-6) in the holoenzyme
T1 construct: gene PSMC2; endogenous subunits in doubly capped 26S holoenzyme (28-subunit CP, 19-subunit RPs)
Experiment: cryo-EM structure
Type: binding
Details: 1 mM ATP-γ-S, 1 mM MgCl2, pH 7.5; Walker A nucleotide sites of Rpt subunits

In the case of `Nc1ncnc2c1ncn2[C@@H]1O[C@H](COP(=O)(O)OP(=O)(O)OP(O)(O)=S)[C@@H](O)[C@H]1O` [ATP-γ-S], the cryo-EM structure was “ATP-γ-S was modeled into the nucleotide densities of four Rpt subunits in each state”.
